In assay [1] the target is SARS-CoV-2 Papain-like (PLpro) protease (Severe acute respiratory syndrome coronavirus 2, UniProt P0DTD1). Kind of assay: SARS-CoV-2 Papain-like (PLpro) protease biochemical enzyme inhibition assay (ubiquitin-fluorophore substrate, Ub-R110). The conditions noted are these: Ub-R110 substrate; run in duplicate; read-out: PLpro IC50.
For another assay, the system named is SARS-CoV-2 replicon. Nature of the assay: microbe, parasite or virus in culture. The conditions noted are these: Severe acute respiratory syndrome coronavirus 2, Huh-7. The format is cell-based.
A further assay relates to SARS-CoV-2 USA-WA1/2020. Kind of assay: microbe, parasite or virus in culture. Format: cell-based. The conditions noted are these: read-out: SARS-CoV-2 BSL3 EC50.
Where [2] appears, read: Severe acute respiratory syndrome coronavirus 2, 144 h, Vero 76 cells, SARS-CoV-2 USA-WA1/2020, neutral red, day 6.

Read-outs that look alike come from different tables or passages of the source. A value given as a limit tells only on which side of the number the result lay.

In general, IC50 refers to the concentration at which inhibition is half-maximal. What is called EC50 is the concentration at which the effect is half-maximal. `COC(=O)/C=C/CCNC(=O)C(=O)NCc1ccccc1C(=O)N[C@H](C)c1cccc2ccccc12` [Example 1]: the IC50 in assay [1] is less than 100 nM. Moreover, the EC50 in the assay with SARS-CoV-2 replicon and in the assay with SARS-CoV-2 USA-WA1/2020 (setting [2]) was less than 1000 nM in each case.

`COC(=O)/C=C/CNC(=O)C(=O)NCc1ccccc1C(=O)N[C@H](C)c1cccc2ccccc12` [Example 2]: in assay [1], the IC50 was less than 100 nM. Further, the EC50 with SARS-CoV-2 replicon and with SARS-CoV-2 USA-WA1/2020 (setting [2]) was less than 1000 nM each time.

With `COC(=O)/C=C/CCNC(=O)C(=O)NCc1ccccc1C(=O)NC1(c2cccc3ccccc23)CC1` [Example 3], the IC50 in assay [1] was less than 100 nM. Moreover, the EC50 in the assay with SARS-CoV-2 replicon and in the assay on SARS-CoV-2 USA-WA1/2020 (setting [2]) was less than 1000 nM in each case.

For `N#CCNC(=O)C(=O)NCc1ccc(-c2ccn(C(F)F)n2)cc1C(=O)NC1(c2ccc(F)c3ccccc23)CC1` [Example 125], the IC50 in assay [1] is less than 100 nM. For the same molecule, the EC50 is 1000 to 10000 nM with SARS-CoV-2 replicon and less than 1000 nM with SARS-CoV-2 USA-WA1/2020 (setting [2]).

On to `C#CCNC(=O)C(=O)NCc1ccc(-c2ccn(C(F)F)n2)cc1C(=O)NC1(c2ccc(F)c3ccccc23)CC1` [Example 126], for which the IC50 in assay [1] is less than 100 nM. Besides, the EC50 in the assay on SARS-CoV-2 replicon and with SARS-CoV-2 USA-WA1/2020 (setting [2]) was less than 1000 nM in each case.

Turning to `N#CCNC(=O)C(=O)NCc1ccccc1C(=O)NC1(c2cc(Cl)cc(-c3cccs3)c2)CC1` [Example 457, N1-(2-((1-(3-chloro-5-(thiophen-2-yl)phenyl)cyclopropyl)carbamoyl)benzyl)-N2-(cyanomethyl)oxalamide], the IC50 in assay [1] was less than 100 nM. Besides, the EC50 is 1000 to 10000 nM in the assay with SARS-CoV-2 replicon and 1000 to 10000 nM in the assay with SARS-CoV-2 USA-WA1/2020 (Severe acute respiratory syndrome coronavirus 2, Vero 76, 144 h).

As for `O=C(C#CCNC(=O)C(=O)NCc1ccccc1C(=O)NC1(c2cccc3ccccc23)CC1)NC1CC1` [Example 518], the IC50 in assay [1] is less than 100 nM. Further, the EC50 in the assay on SARS-CoV-2 replicon and in the assay with SARS-CoV-2 USA-WA1/2020 (setting [2]) was less than 1000 nM throughout.

With `O=C(C#CCNC(=O)C(=O)NCc1ccccc1C(=O)NC1(c2cccc3ccccc23)CC1)N[C@]12C[C@](C(F)(F)F)(C1)C2` [Example 525], the IC50 in assay [1] is less than 100 nM. The EC50 was less than 1000 nM with SARS-CoV-2 replicon and 1000 to 10000 nM in the assay on SARS-CoV-2 USA-WA1/2020 (setting [2]).

As to `O=C(NCC#CC(=O)N1CC2CC2C1)C(=O)NCc1ccccc1C(=O)NC1(c2ccc3ccccc3c2)CC1` (centres unmarked) [Example 527], the IC50 in assay [1] is less than 100 nM. The EC50 with SARS-CoV-2 replicon and in the assay on SARS-CoV-2 USA-WA1/2020 (setting [2]) was less than 1000 nM each time.

For `O=C(NCC#CC(=O)N1CC2CC2C1)C(=O)NCc1ccccc1C(=O)NC1(c2cccc3ccccc23)CC1` (centres unmarked) [Example 528], the IC50 in assay [1] is less than 100 nM. In addition, the half-maximal effective concentration (EC50) in the assay on SARS-CoV-2 replicon and with SARS-CoV-2 USA-WA1/2020 (setting [2]) was less than 1000 nM each time.

Take `O=C(NCC#CC(=O)N1CC(F)(F)C1)C(=O)NCc1ccccc1C(=O)NC1(c2cccc3ccccc23)CC1` [Example 529]: in assay [1], the IC50 is less than 100 nM. Besides, the EC50 with SARS-CoV-2 replicon and in the assay on SARS-CoV-2 USA-WA1/2020 (setting [2]) was less than 1000 nM throughout.

Take `O=C(NCC#CC(=O)N1CC(F)(F)C1)C(=O)NCc1ccccc1C(=O)NC1(c2ccc3ccccc3c2)CC1` [Example 535]: the IC50 in assay [1] was less than 100 nM. Also, the EC50 was less than 1000 nM in the assay with SARS-CoV-2 replicon and 1000 to 10000 nM with SARS-CoV-2 USA-WA1/2020 (setting [2]).

In the case of `O=C(C#CCNC(=O)C(=O)NCc1ccccc1C(=O)NC1(c2ccc3ccccc3c2)CC1)NC1CC1` [Example 536], the IC50 in assay [1] was less than 100 nM. Also, the EC50 in the assay with SARS-CoV-2 replicon and in the assay with SARS-CoV-2 USA-WA1/2020 (setting [2]) was less than 1000 nM each time.

For `O=C(C#CCNC(=O)C(=O)NCc1ccccc1C(=O)NC1(c2ccc3ccccc3c2)CC1)N[C@]12C[C@](C(F)(F)F)(C1)C2` [Example 537], the IC50 in assay [1] was less than 100 nM. Moreover, the EC50 in the assay with SARS-CoV-2 replicon and in the assay on SARS-CoV-2 USA-WA1/2020 (setting [2]) was less than 1000 nM each time.

For `O=C(/C=C/CNC(=O)C(=O)NCc1ccccc1C(=O)NC1(c2cccc3ccccc23)CC1)NCC(F)(F)F` [Example 572], the IC50 in assay [1] lay in the range of 100 to 1000 nM. The molecule further registered an EC50 in the assay on SARS-CoV-2 replicon greater than 10000 nM.

Regarding `CON(C)C(=O)/C=C/CNC(=O)C(=O)NCc1ccccc1C(=O)NC1(c2cccc3ccccc23)CC1` [Example 573], the IC50 in assay [1] was 100 to 1000 nM. The molecule further gave an EC50 with SARS-CoV-2 replicon of 1000 to 10000 nM.

Turning to `N#Cc1cccc(NC(=O)/C=C/CNC(=O)C(=O)NCc2ccccc2C(=O)NC2(c3cccc4ccccc34)CC2)c1` [Example 574], in assay [1], the IC50 was in the range of 100 to 1000 nM. The same molecule showed an EC50 in the assay on SARS-CoV-2 replicon of 1000 to 10000 nM.

`O=C(/C=C/CNC(=O)C(=O)NCc1ccccc1C(=O)NC1(c2cccc3ccccc23)CC1)NC1(C(F)(F)F)CC1` [Example 575]: the IC50 in assay [1] is 100 to 1000 nM. The molecule further returned an EC50 in the assay on SARS-CoV-2 replicon greater than 10000 nM.

For the molecule `COC(=O)/C=C/CNC(=O)C(=O)NNc1ccccc1C(=O)NC1(c2cccc3ccccc23)CC1` [Example 576], in assay [1], the IC50 is less than 100 nM. In the assay on SARS-CoV-2 replicon, this molecule showed an EC50 of less than 1000 nM.

In the case of `COc1cc(C2(NC(=O)c3ccccc3CNC(=O)C(=O)NC/C=C/c3ncccn3)CC2)cc2cn(C3CC3)nc12` [Example 577], the IC50 in assay [1] was less than 100 nM. The molecule also showed an EC50 with SARS-CoV-2 replicon of less than 1000 nM.

Take `O=C(NC/C=C/c1ncccn1)C(=O)NCc1ccccc1C(=O)NC1(c2ccc3ccccc3c2)CC1` [Example 582]: the IC50 in assay [1] is less than 100 nM. The molecule also registered a concentration for a half-maximal effect (EC50) in the assay on SARS-CoV-2 replicon of less than 1000 nM.

The record behind these values is patent US20240327334A1, “Covalent Inhibitors As Antiviral Agents” (Enanta Pharmaceuticals, Inc., priority 2022, published 2024).
